“And” between values parts separate entries of the source, which are not always exact repeats. Equal entries are not always repeated.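 Method: 48-hour compound exposure of cells in 96-well plates, five concentrations, linear interpolation of endpoints. GI50 marks 50% less growth. The concentration for full growth arrest is given as TGI.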
How the values were obtained:
Assay in all cases: DTP human tumour cell line panel, 48 h
[1] = test system: A498 renal
[2] = test system: SK-MEL-5 melanoma
[3] = test system: A549 NSCLC
[4] = test system: SNB-19 CNS
[5] = test system: UO-31 renal
[6] = test system: HOP-62 NSCLC
[7] = test system: UACC-62 melanoma
[8] = test system: SF-539 CNS
[9] = test system: NCI/ADR-RES ovarian
[10] = test system: LOX IMVI melanoma

Structure (SMILES) | GI50 [1] [µM] | TGI [1] [µM] | GI50 [2] [µM] | TGI [2] [µM] | GI50 [3] [µM] | TGI [3] [µM] | GI50 [4] [µM] | TGI [4] | GI50 [5] [µM] | TGI [5] [µM] | GI50 [6] [µM] | TGI [6] [µM] | GI50 [7] [µM] | TGI [7] [µM] | GI50 [8] [µM] | TGI [8] | GI50 [9] [µM] | TGI [9] [µM] | GI50 [10] [µM] | TGI [10] [µM]
Cc1noc(C)c1-c1cnc2c(-c3ccc(C(=O)O)cc3)cn([C@@H](C)c3ccccn3)c2c1 | 0.196 | 1.87 | 0.644 | 4.07 | 3.25 | > 100 | 1.58 | > 100 µM | 0.102 | > 55 | 0.555 | > 100 | 0.0954 | 20.2 | 0.842 | > 100 µM | 2.28 | > 100 | 0.315 | 7.73
Oc1c(O)c(Cl)c(Cl)c(Cl)c1Cl | 2.67 | 8.92 | 3.37 | 13.4 | 4.2 | 24.1 | – | – | 2.74 | 13.1 | 4.54 | 17.3 | 2.95 | 10.2 | 3.72 | 14.7 µM | 3.01 | 10.3 | 3.65 | 20.3
COc1cc(NC(C)CCCNC(C)C)c2ncccc2c1OC (centres undefined) | 0.416 | > 100 | > 100 | > 100 | > 100 | > 100 | > 100 | > 100 µM | 5.29 | > 100 | > 100 | > 100 | > 100 | > 100 | > 100 | > 100 µM | > 100 | > 100 | > 100 | > 100
O=C(O)Cn1ccc2ccccc21 | > 100 | > 100 | > 100 | > 100 | > 100 | > 100 | > 100 | > 100 µM | > 100 | > 100 | > 100 | > 100 | > 100 | > 100 | > 100 | > 100 µM | > 100 | > 100 | > 100 | > 100
Nc1ccccc1C(=O)NC(=O)Nc1ccc(Oc2ncc(Br)cn2)c(Cl)c1 | – | 1.21 | 0.00688 | 1.71 | – | 13.4 | – | 14.7 µM | – | 9.03 | – | 4.03 | 0.00797 | 4.33 | – | 0.0204 µM | – | 0.391 | – | 24.1
S=C(CSc1ccccc1)Nc1cccc2ccccc12 | – | 71 | – | 36.6 | – | > 100 | – | > 100 µM | – | > 100 | – | > 100 | – | > 100 | – | 76.4 µM | – | > 100 | – | > 100
CCOc1ccc(C(C)=O)cc1NC(=O)c1cccc(-c2nnn(CC)n2)c1 | 0.803 | 24 | 0.465 | 16.5 | 0.892 | > 100 | 1.29 | 76.6 µM | 1.94 | > 100 | 0.39 | 18.1 | 0.615 | 23.4 | 0.346 | 3.54 µM | 0.511 | 13.3 | 0.59 | 70.2
C=C(CN1c2ccccc2Sc2ccccc21)c1ccc(C(=O)Nc2ccccc2N)cc1 | > 100 | > 100 | 44.7 | > 100 | 11.4 | > 100 | > 54.3 | > 100 µM | 2.03 | > 100 | > 46.7 | > 100 | 93 | > 100 | > 26 | > 100 µM | 8.77 | > 100 | > 52.7 | > 100
Cc1c(C)c2c(c(C)c1OCC(=O)O)CC[C@@](C)(CCC[C@@H](C)CCC[C@@H](C)CCCC(C)C)O2 | 94.9 | 167 | 58 | 122 | 24.4 | 107 | 95.8 | 196 µM | 84.1 | 152 | 62.2 | 161 | 61.1 | 126 | 78.1 | 153 µM | 78.7 | 210 | 78.7 | 216
O=C(Oc1ccccc1)C(Br)C(Br)c1ccccc1 (centres undefined) | 10.5 | 22.4 | 13.1 | 25.8 | 18 | 38.5 | 11.9 | 24.6 µM | 1.72 | 3.34 | 14.5 | 28.3 | 5.51 | 18.2 | 4.76 | 16.4 µM | 3.71 | 19.9 | 1.9 | 4
O=C(/C=C\n1cnc(-c2cc(C(F)(F)F)cc(C(F)(F)F)c2)n1)N1CC(F)(F)C1 | 0.0375 | 0.452 | 0.644 | 4.08 | 0.559 | > 25 | 0.273 | > 25 µM | 0.422 | > 25 | 0.57 | 3.46 | 1.17 | 9.2 | 0.161 | 1.58 µM | 0.552 | 10.9 | 0.357 | 3.45
Cn1cc(C2=C(c3ccccc3C(F)(F)F)C(=O)NC2=O)c2ccccc21 | 3.9 | 17.5 | 4.74 | 13 | 7.89 | > 25 | 21 | > 25 µM | 7.84 | > 25 | 11.8 | > 25 | 9.97 | > 25 | 11.1 | > 25 µM | 9.53 | > 25 | 8.46 | > 25
COc1ccc2[nH]c(C(=O)OCc3ccc4cccc(O)c4n3)cc2c1 | 2.65 | 5.57 | 1.76 | 3.18 | 1.81 | 3.92 | 2.83 | 11.2 µM | 0.551 | 1.99 | 1.52 | 3.5 | 1.31 | 2.6 | 1.27 | 2.53 µM | 1.94 | 5.91 | 0.779 | 2.14
OC(COc1ccccc1)CN1CCCCC1 (centres undefined) | – | > 100 | – | > 100 | – | > 100 | – | > 100 µM | – | > 100 | – | > 100 | – | > 100 | – | > 100 µM | – | > 100 | – | > 100
O=C(Nc1ccc2c(c1)OCCO2)C(=O)c1c[nH]c2ccccc12 | 0.535 | 7.08 | 1.47 | > 100 | 1.18 | > 100 | 2.88 | 79.7 µM | 5.11 | > 71.4 | 2.9 | 21.2 | 1.43 | > 100 | 1.5 | 5.32 µM | 0.375 | 5.06 | 1.3 | > 100
COc1cc(-c2nccc3cc4c(cc23)OCO4)cc(OC)c1OC | 2.55 | 15.2 | 3.16 | > 100 | 7.37 | > 100 | 7.34 | > 100 µM | 6.99 | > 100 | 7.55 | > 100 | 4.55 | > 100 | 3.31 | 44.1 µM | 2.74 | > 100 | 6.06 | > 100
COc1cc(Nc2ncnc(Nc3ccc4c(n3)NC(=O)C(C)(C)O4)n2)cc(OC)c1OC | 0.031 | 0.29 | > 100 | > 100 | 1.25 | > 100 | 9.78 | > 100 µM | 0.329 | > 100 | 0.555 | > 66.5 | 2.36 | > 100 | 0.23 | 0.673 µM | – | > 100 | 0.633 | > 100
CN(C)CCCCCNc1c2ccccc2nc2cccc([N+](=O)[O-])c12 | – | 0.00758 | 0.00693 | 0.00335 | 0.00571 | 0.00235 | – | > 0.0231 µM and 0.0317 µM | 0.0125 | 0.0425 | – | 0.00716 | 0.00522 | 0.00404 | – | 0.00979 µM and 0.0157 µM | – | 0.0055 | – | 0.0113
NC(CSC(c1ccccc1)(c1ccccc1)c1ccc(F)cc1)C(=O)O (centres undefined) | 0.344 | 33.8 | 0.382 | > 70.9 | 0.35 | > 31.7 | 0.458 | > 47.4 µM | 14.1 | > 100 | 3.04 | > 85.6 | 0.408 | – | 0.285 | 0.921 µM | 2.98 | 19.2 | 0.891 | > 100
COc1ccc(-c2nsc3c2NC(=O)CC3c2cccc(Cl)c2)cc1 (centres undefined) | 1.34 | 8.1 | 1.38 | 51.6 | 0.987 | > 100 | 5.44 | > 100 µM | 5.22 | > 100 | 4.04 | 98.1 | 2.31 | > 100 | 1.75 | 6.06 µM | 0.604 | > 100 | 5.57 | > 100
COc1ccc(-c2nn3ncccc3c2-c2ccnc(Nc3ccc4c(c3)OCCO4)n2)cc1 | 3.69 | 22.1 | 6.26 | > 25 | 8.41 | > 25 | 16.3 | > 25 µM | 2.19 | 16.7 | 9.64 | > 25 | 5.23 | > 25 | 13 | > 25 µM | 7.52 | > 25 | 3.65 | > 25
CC12OC(C(=O)C13CCC3)C1C(=O)c3ccc4c(ccc5ccccc54)c3C(=O)C12 (centres undefined) | 8.74 | 29.6 | – | – | 19.5 | > 100 | 21.5 | 65.7 µM | 25.7 | > 100 | 25.2 | 53.4 | 35.4 | > 100 | 11.1 | 66.8 µM | 4.45 | 22.8 | – | –
O=C(CN(/C=C/C(=O)C(F)(F)F)c1ccccc1)c1ccc(Cl)cc1 | 20.4 | 42.2 | 16.4 | 31.6 | 21.1 | 77.5 | 22 | 51.5 µM | 19.9 | 41.7 | 17.2 | 31.8 | 13.1 | 25.8 | 22.7 | 47 µM | 17.6 | 36 | 16 | 32.6
CCn1c(=N)sc2nc3ccccc3n2c1=O | – | > 100 | – | > 100 | – | > 100 | – | > 100 µM | – | 33.3 | – | > 100 | – | > 100 | – | > 100 µM | – | > 100 | – | > 100
CC(=O)O[C@H](C[C@H](C(C)C)N(C)C(=O)[C@@H](NC(=O)[C@H]1CCCCN1C)C(C)C)c1cccc(C(=O)N[C@@H](Cc2ccccc2)C[C@H](C)C(=O)O)n1 | 0.0158 | 0.0737 | 0.0155 | 0.36 | 0.0666 | > 25 | 0.0343 | > 25 µM | 0.33 | > 25 | 0.0648 | > 25 | 0.0276 | > 25 | 0.0193 | 0.0626 µM | 2.06 | > 10.6 | 0.0255 | > 25
C=C1C(=O)O[C@H]2[C@H]1CC/C(COC(=O)NCCc1cccc(OC)c1)=C\CC[C@@]1(C)O[C@@H]21 | 2.35 | 7.76 | 1.84 | 3.57 | 7.28 | 21.9 | 1.43 | 3.13 µM | 1.39 | 2.86 | 4.39 | 16.6 | – | – | 1.49 | 2.96 µM | 2.95 | 10.8 | 1.34 | 2.81
COc1cc2nc(-c3cccc4cccnc34)nc(NC3CCN(Cc4ccccc4)CC3)c2cc1OC | 1.83 | 3.39 | 1.66 | 3.18 | 0.56 | 1.94 | 1.34 | 3.16 µM | 1.43 | 2.88 | 1.23 | 3.05 | 2 | 4.02 | 1.4 | 2.92 µM | 2.1 | 5.61 | – | –
